From ChEMBL document CHEMBL3232955, “Impact of stereospecific intramolecular hydrogen bonding on cell permeability and physicochemical properties” (J Med Chem, 2014)
≈ marks a conversion by molar mass, not a printed value.

Tests used:
[1] = Dissociation constant, pKa of the compound for N15, 3'-amine group by dip probe absorption spectroscopy; type: physicochemical
[2] = Solubility of the compound in phosphate buffered saline at pH 7.4 containing 1% DMSO after 18 hrs by UPLC-MS method; type: physicochemical; details: phosphate buffered saline with 1% DMSO
[3] = Lipophilicity, log D of the compound by shake flask technique; type: physicochemical; details: octanol/water
[4] = Efflux ratio of apparent permeability from basolateral to apical side to apical to basolateral side of human Caco2 cells; type: ADME, cell-based; details: Caco-2
[5] = Dissociation constant, pKa of the compound for N34 pyridine group by dip probe absorption spectroscopy; type: physicochemical

| pKa [1] | solubility kinetic at 18 h [2] | logD [3] | efflux ratio [4] | pKa [5] | Structure (SMILES) |
| --- | --- | --- | --- | --- | --- |
| 7.08 | 93 µM (≈ 54 µg/mL) | 3.4 | 0.41 | 2.98 | C[C@@H](CO)N1C(=O)c2cccc(NC(=O)c3ccncc3)c2O[C@H](CN(C)Cc2ccc(Oc3ccccc3)cc2)[C@@H]1C |
| 7.07 | 86 µM (≈ 49.9 µg/mL) | 3.4 | 0.47 | 2.98 | C[C@H](CO)N1C(=O)c2cccc(NC(=O)c3ccncc3)c2O[C@@H](CN(C)Cc2ccc(Oc3ccccc3)cc2)[C@H]1C |
| 7.16 | 87 µM (≈ 50.5 µg/mL) | 3.4 | 0.48 | 2.97 | C[C@@H]1[C@H](CN(C)Cc2ccc(Oc3ccccc3)cc2)Oc2c(NC(=O)c3ccncc3)cccc2C(=O)N1[C@@H](C)CO |
| 7.16 | 98 µM (≈ 56.9 µg/mL) | 3.4 | 0.36 | 2.98 | C[C@H](CO)N1C(=O)c2cccc(NC(=O)c3ccncc3)c2O[C@H](CN(C)Cc2ccc(Oc3ccccc3)cc2)[C@@H]1C |
| 6.08 | 1 µM (≈ 0.581 µg/mL) |  | 0.36 | 2.76 | C[C@@H](CO)N1C(=O)c2cccc(NC(=O)c3ccncc3)c2O[C@@H](CN(C)Cc2ccc(Oc3ccccc3)cc2)[C@@H]1C |
| 6.14 | 2 µM (≈ 1.16 µg/mL) |  | 0.42 | 2.76 | C[C@H](CO)N1C(=O)c2cccc(NC(=O)c3ccncc3)c2O[C@@H](CN(C)Cc2ccc(Oc3ccccc3)cc2)[C@@H]1C |
| 6.18 | 1 µM (≈ 0.581 µg/mL) |  | 0.1 | 2.77 | C[C@@H]1[C@@H](CN(C)Cc2ccc(Oc3ccccc3)cc2)Oc2c(NC(=O)c3ccncc3)cccc2C(=O)N1[C@@H](C)CO |
| 6.08 | 1 µM (≈ 0.581 µg/mL) |  | 0.31 | 2.77 | C[C@H](CO)N1C(=O)c2cccc(NC(=O)c3ccncc3)c2O[C@H](CN(C)Cc2ccc(Oc3ccccc3)cc2)[C@H]1C |
